In brackets after ≈: the same amount, converted by molar mass.
Test system: P388
Assay: Cytotoxicity against mouse P388 cells
Type: functional, cell-based

COc1ccc(C[C@H]2C(=O)N[C@@H](C)C(=O)N(C)[C@H]3Cc4ccc(cc4)Oc4cc(ccc4OC)C[C@@H](C(=O)N[C@H](C)C(=O)N[C@@H](C)C(=O)N2C)N(C)C3=O)cc1
IC50: 0.0015 µg/mL (≈ 0.00195 µM)

COc1ccc2cc1Oc1ccc(cc1)C[C@@H]1NC(=O)[C@@H](C)NC(=O)[C@@H]3Cc4ccc(OC)c(c4)Oc4ccc(cc4)C[C@@H](C(=O)N3C)N(C)C(=O)[C@H](C)NC(=O)[C@H](C2)NC1=O
IC50: 7.5 µg/mL (≈ 8.86 µM)
